This passage reports IC50 results from patent US20260297081A1, “COMPOUNDS AND METHODS OF TREATING CANCERS” (Cullgen Inc., priority 2023, published 2026).

This experiment has as its system MCF7 cells. Briefly: Anti-proliferation (viability) of MCF7 cells (Table 7, FIG. 2B). The experiment is classed as cell-based. The note with it: 3-6 days, 10-point serial dilution, read-out: GI IC50 in MCF-7.

Each structure is given as a SMILES string. Where two headings read alike, the source gives them in different places.

Regarding `[2H]C([2H])([2H])Nc1ccc(C(=O)Nc2cc(C)n(C)n2)c(NC2CC(C(C)NC(=O)CN3CCN(c4ccc(Nc5ncc6c(C)c(C(C)=O)c(=O)n(C7CCCC7)c6n5)nc4)CC3)C2)n1` (centres unmarked) [CPD-353, 2-((3-(1-(2-(4-(6-((6-acetyl-8-cyclopentyl-5-methyl-7-oxo-7,8-dihydropyrido[2,3-d]pyrimidin-2-yl)amino)pyridin-3-yl)piperazin-1-yl)acetamido)ethyl)cyclobutyl)amino)-N-(1,5-dimethyl-1H-pyrazol-3-yl)-6-((methyl-d3)amino)nicotinamide], the IC50 (Homo sapiens, MCF7, MCF7 cells) was > 0.1 µM.

As for `CNc1ccc(C(=O)Nc2ccc(N(C)C)nn2)c(NC2CC3(C2)CN(C(=O)C2CC(N4CCN(c5ccc(Nc6ncc7c(C)c(C(C)=O)c(=O)n(C8CCCC8)c7n6)nc5)CC4)C2)C3)n1` (centres unmarked) [CPD-348, 2-((2-(3-(4-(6-((6-acetyl-8-cyclopentyl-5-methyl-7-oxo-7,8-dihydropyrido[2,3-d]pyrimidin-2-yl)amino)pyridin-3-yl)piperazin-1-yl)cyclobutane-1-carbonyl)-2-azaspiro[3.3]heptan-6-yl)amino)-N-(6-(dimethylamino)pyridazin-3-yl)-6-(methylamino)nicotinamide], where the note is “Homo sapiens, MCF7, MCF7 cells”, the IC50 was > 0.1 µM.

With `CNc1ccc(C(=O)Nc2ccc(N(C)C)nn2)c(NC2CN(C(=O)CN3CCN(Cc4ccc(Nc5ncc6c(C)c(C(C)=O)c(=O)n(C7CCCC7)c6n5)nc4)CC3)C2)n1` [CPD-269, 2-((1-(2-(4-((6-((6-acetyl-8-cyclopentyl-5-methyl-7-oxo-7,8-dihydropyrido[2,3-d]pyrimidin-2-yl)amino)pyridin-3-yl)methyl)piperazin-1-yl)acetyl)azetidin-3-yl)amino)-N-(6-(dimethylamino)pyridazin-3-yl)-6-(methylamino)nicotinamide], where the note is “Homo sapiens, MCF7, MCF7 cells”, the IC50 is > 0.1 µM.

As to `CC(=O)c1c(C)c2cnc(Nc3ccc(N4CCN(CC(=O)NCC5CC(Nc6ccc(F)cc6C(=O)Nc6cc(C)n(C)n6)C5)CC4)cn3)nc2n(C2CCCC2)c1=O` (centres unmarked) [CPD-263, 2-((3-((2-(4-(6-((6-acetyl-8-cyclopentyl-5-methyl-7-oxo-7,8-dihydropyrido[2,3-d]pyrimidin-2-yl)amino)pyridin-3-yl)piperazin-1-yl)acetamido)methyl)cyclobutyl)amino)-N-(1,5-dimethyl-1H-pyrazol-3-yl)-5-fluorobenzamide], for the setting “Homo sapiens, MCF7, MCF7 cells”, the IC50 is > 0.1 µM.

Consider `CCCNc1ccc(C(=O)Nc2cn(C)c(C3CC3)n2)c(NC2CC3(CC(NC(=O)CN4CCN(c5ccc(Nc6ncc7c(C)c(C(C)=O)c(=O)n(C8CCCC8)c7n6)nc5)CC4)C3)C2)n1` (centres unmarked) [CPD-298, 2-((6-(2-(4-(6-((6-acetyl-8-cyclopentyl-5-methyl-7-oxo-7,8-dihydropyrido[2,3-d]pyrimidin-2-yl)amino)pyridin-3-yl)piperazin-1-yl)acetamido)spiro[3.3]heptan-2-yl)amino)-N-(2-cyclopropyl-1-methyl-1H-imidazol-4-yl)-6-(propylamino)nicotinamide], for which, under “Homo sapiens, MCF7, MCF7 cells”, the IC50 is > 0.1 µM.

For the compound `CC(=O)c1c(C)c2cnc(Nc3ccc(N4CCN(CC(=O)NC5CC6(C5)CC(Nc5nc(NC(C)C)ccc5C(=O)Nc5cc7n(n5)CCC7)C6)CC4)cn3)nc2n(C2CCCC2)c1=O` (centres unmarked) [CPD-440, 2-((6-(2-(4-(6-((6-acetyl-8-cyclopentyl-5-methyl-7-oxo-7,8-dihydropyrido[2,3-d]pyrimidin-2-yl)amino)pyridin-3-yl)piperazin-1-yl)acetamido)spiro[3.3]heptan-2-yl)amino)-N-(5,6-dihydro-4H-pyrrolo[1,2-b]pyrazol-2-yl)-6-(isopropylamino)nicotinamide], the IC50 (Homo sapiens, MCF7, MCF7 cells) is < 0.05 µM.

Consider `CC(=O)c1c(C)c2cnc(Nc3ccc(N4CCN(CC(=O)NCC5CC(Nc6ccc(C(F)(F)F)cc6C(=O)Nc6cc(C)n(C)n6)C5)CC4)cn3)nc2n(C2CCCC2)c1=O` (centres unmarked) [CPD-262, 2-((3-((2-(4-(6-((6-acetyl-8-cyclopentyl-5-methyl-7-oxo-7,8-dihydropyrido[2,3-d]pyrimidin-2-yl)amino)pyridin-3-yl)piperazin-1-yl)acetamido)methyl)cyclobutyl)amino)-N-(1,5-dimethyl-1H-pyrazol-3-yl)-5-(trifluoromethyl)benzamide], for which, where the note is “Homo sapiens, MCF7, MCF7 cells”, the 50% inhibitory concentration (IC50) is > 0.1 µM.

As to `CC(=O)c1c(C)c2cnc(Nc3ccc(N4CCN(C5CCN(C(=O)C6(O)CCC(Nc7nc(NC(C)C)ccc7C(=O)Nc7ccc(N(C)C)nn7)CC6)C5)CC4)cn3)nc2n(C2CCCC2)c1=O` (stereo not drawn) [CPD-575, 2-((trans-4-(3-(4-(6-((6-acetyl-8-cyclopentyl-5-methyl-7-oxo-7,8-dihydropyrido[2,3-d]pyrimidin-2-yl)amino)pyridin-3-yl)piperazin-1-yl)pyrrolidine-1-carbonyl)-4-hydroxycyclohexyl)amino)-N-(6-(dimethylamino)pyridazin-3-yl)-6-(isopropylamino)nicotinamide], the IC50 (MCF7 cells) is > 0.1 µM.

For `CC(=O)c1c(C)c2cnc(Nc3ccc(N4CCN(C(C)C(=O)NC5CC6(C5)CC(Nc5nc(NC(C)C)ccc5C(=O)Nc5ccc(N(C)C)nn5)C6)CC4)cn3)nc2n(C2CCCC2)c1=O` (centres unmarked) [CPD-406, 2-((6-(2-(4-(6-((6-acetyl-8-cyclopentyl-5-methyl-7-oxo-7,8-dihydropyrido[2,3-d]pyrimidin-2-yl)amino)pyridin-3-yl)piperazin-1-yl)propanamido)spiro[3.3]heptan-2-yl)amino)-N-(6-(dimethylamino)pyridazin-3-yl)-6-(isopropylamino)nicotinamide], the concentration for half-maximal inhibition (IC50) (Homo sapiens, MCF7, MCF7 cells) is < 0.05 µM.

As for `CC(=O)c1c(C)c2cnc(Nc3ccc(N4CCC(NCC(=O)NC5CC(Nc6nc(NC(C)C)ccc6C(=O)Nc6ccc(N(C)C)nn6)C5)CC4)cn3)nc2n(C2CCCC2)c1=O` (centres unmarked) [CPD-382, 2-((3-(2-((1-(6-((6-acetyl-8-cyclopentyl-5-methyl-7-oxo-7,8-dihydropyrido[2,3-d]pyrimidin-2-yl)amino)pyridin-3-yl)piperidin-4-yl)amino)acetamido)cyclobutyl)amino)-N-(6-(dimethylamino)pyridazin-3-yl)-6-(isopropylamino)nicotinamide], the IC50 (Homo sapiens, MCF7, MCF7 cells) was 0.05 to 0.1 µM.

On to `CC(=O)c1c(C)c2cnc(Nc3ccc(N4CCN(CC(=O)NC(C)(C)C5CC(Nc6nc(NC(C)C)ccc6C(=O)Nc6cc(C)n(C)n6)C5)CC4)cn3)nc2n(C2CCCC2)c1=O` (centres unmarked) [CPD-387, 2-((3-(2-(2-(4-(6-((6-acetyl-8-cyclopentyl-5-methyl-7-oxo-7,8-dihydropyrido[2,3-d]pyrimidin-2-yl)amino)pyridin-3-yl)piperazin-1-yl)acetamido)propan-2-yl)cyclobutyl)amino)-N-(1,5-dimethyl-1H-pyrazol-3-yl)-6-(isopropylamino)nicotinamide], for which the IC50 (Homo sapiens, MCF7, MCF7 cells) was in the range of 0.05 to 0.1 µM.

`CC(=O)c1c(C)c2cnc(Nc3ccc(N4CC5(CN(CC(=O)N6CC7(CC(Nc8nc(NC(C)C)ccc8C(=O)Nc8ccc(N(C)C)nn8)C7)C6)C5)C4)cn3)nc2n(C2CCCC2)c1=O` [CPD-423, 2-((2-(2-(6-(6-((6-acetyl-8-cyclopentyl-5-methyl-7-oxo-7,8-dihydropyrido[2,3-d]pyrimidin-2-yl)amino)pyridin-3-yl)-2,6-diazaspiro[3.3]heptan-2-yl)acetyl)-2-azaspiro[3.3]heptan-6-yl)amino)-N-(6-(dimethylamino)pyridazin-3-yl)-6-(isopropylamino)nicotinamide]: for the setting “Homo sapiens, MCF7, MCF7 cells”, the IC50 is 0.05 to 0.1 µM.

Consider `CNc1ccc(C(=O)Nc2ccc(N(C)C)nn2)c(NC2CC3(C2)CC(C(=O)N2CC(N4CCN(c5ccc(Nc6ncc7c(C)c(C(C)=O)c(=O)n(C8CCCC8)c7n6)nc5)CC4)C2)C3)n1` (centres unmarked) [CPD-362, 2-((6-(3-(4-(6-((6-acetyl-8-cyclopentyl-5-methyl-7-oxo-7,8-dihydropyrido[2,3-d]pyrimidin-2-yl)amino)pyridin-3-yl)piperazin-1-yl)azetidine-1-carbonyl)spiro[3.3]heptan-2-yl)amino)-N-(6-(dimethylamino)pyridazin-3-yl)-6-(methylamino)nicotinamide], for which the IC50 (Homo sapiens, MCF7, MCF7 cells) is > 0.1 µM.

Regarding `CC(=O)c1c(C)c2cnc(Nc3ccc(N4CCN(CC(=O)NC5CC6(C5)CC(Nc5nc(C(C)O)ccc5C(=O)Nc5cn(C)c(C7CC7)n5)C6)CC4)cn3)nc2n(C2CCCC2)c1=O` (centres unmarked) [CPD-349, 2-((6-(2-(4-(6-((6-acetyl-8-cyclopentyl-5-methyl-7-oxo-7,8-dihydropyrido[2,3-d]pyrimidin-2-yl)amino)pyridin-3-yl)piperazin-1-yl)acetamido)spiro[3.3]heptan-2-yl)amino)-N-(2-cyclopropyl-1-methyl-1H-imidazol-4-yl)-6-(1-hydroxyethyl)nicotinamide], the half-maximal inhibitory concentration (IC50) (Homo sapiens, MCF7, MCF7 cells) was > 0.1 µM.

Regarding `[2H]C([2H])([2H])Nc1ccc(C(=O)Nc2cn(C)c(C3CC3)n2)c(NC2CC3(C2)CN(C(=O)CC(C)N2CCN(c4ccc(Nc5ncc6c(C)c(C(C)=O)c(=O)n(C7CCCC7)c6n5)nc4)CC2)C3)n1` (centres unmarked) [CPD-339, 2-((2-(3-(4-(6-((6-acetyl-8-cyclopentyl-5-methyl-7-oxo-7,8-dihydropyrido[2,3-d]pyrimidin-2-yl)amino)pyridin-3-yl)piperazin-1-yl)butanoyl)-2-azaspiro[3.3]heptan-6-yl)amino)-N-(2-cyclopropyl-1-methyl-1H-imidazol-4-yl)-6-((methyl-d3)amino)nicotinamide], the 50% inhibitory concentration (IC50) (Homo sapiens, MCF7, MCF7 cells) was 0.05 to 0.1 µM.

For the compound `CNc1ccc(C(=O)Nc2ccc(N(C)C)nn2)c(NC2CC(C(=O)NC3CC4(CCN(c5ccc(Nc6ncc7c(C)c(C(C)=O)c(=O)n(C8CCCC8)c7n6)nc5)CC4)C3)C2)n1` (centres unmarked) [CPD-375, 2-((3-((7-(6-((6-acetyl-8-cyclopentyl-5-methyl-7-oxo-7,8-dihydropyrido[2,3-d]pyrimidin-2-yl)amino)pyridin-3-yl)-7-azaspiro[3.5]nonan-2-yl)carbamoyl)cyclobutyl)amino)-N-(6-(dimethylamino)pyridazin-3-yl)-6-(methylamino)nicotinamide], the 50% inhibitory concentration (IC50) (Homo sapiens, MCF7, MCF7 cells) is > 0.1 µM.

As to `CNc1ccc(C(=O)Nc2ccc(N(C)C)nn2)c(NC2CC3(C2)CN(C(=O)CCN2CCN(c4ccc(Nc5ncc6c(C)c(C(C)=O)c(=O)n(C7CCCC7)c6n5)nc4)CC2(C)C)C3)n1` [CPD-267, 2-((2-(3-(4-(6-((6-acetyl-8-cyclopentyl-5-methyl-7-oxo-7,8-dihydropyrido[2,3-d]pyrimidin-2-yl)amino)pyridin-3-yl)-2,2-dimethylpiperazin-1-yl)propanoyl)-2-azaspiro[3.3]heptan-6-yl)amino)-N-(6-(dimethylamino)pyridazin-3-yl)-6-(methylamino)nicotinamide], for the setting “Homo sapiens, MCF7, MCF7 cells”, the IC50 is < 0.05 µM.

By IC50 is commonly meant the concentration needed to halve the response being measured.
